Experimental data as given in PubChem BioAssay (NCI).
Where “and” joins values, the source holds several entries; their conditions need not be identical. Equal entries are not always repeated.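 Method: 48-hour compound exposure of cells in 96-well plates, five concentrations, linear interpolation of endpoints. GI50 is the concentration that inhibits growth by half. TGI marks complete inhibition of growth.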

Key:
Assay in all cases: NCI-60 cell line screen, 48 h
[1] = test system: RXF 393 renal
[2] = test system: SNB-75 CNS
[3] = test system: HT29 colon
[4] = test system: OVCAR-8 ovarian
[5] = test system: SF-268 CNS
[6] = test system: HOP-92 NSCLC
[7] = test system: LOX IMVI melanoma
[8] = test system: SK-MEL-5 melanoma
[9] = test system: NCI-H522 lung
[10] = test system: A498 renal

Row | SMILES | GI50 [1] | TGI [1] | GI50 [2] | TGI [2] | GI50 [3] | TGI [3] | GI50 [4] | TGI [4] | GI50 [5] | TGI [5] | GI50 [6] | TGI [6] | GI50 [7] | TGI [7] | GI50 [8] | TGI [8] | GI50 [9] | TGI [9] | GI50 [10] | TGI [10]
1 | CCOC(=O)c1cnc2c(cnn2CC)c1NN=C(C)C | 11.4 µM | 70 µM | 36.6 µM | > 100 µM | 23.3 µM | > 100 µM | 55.1 µM | > 100 µM | 38.9 µM | > 100 µM | 25.3 µM | > 100 µM | 35.3 µM | > 100 µM | 33.1 µM | > 100 µM | 73.2 µM | > 100 µM | 28.1 µM | > 100 µM
2 | COc1cccc(C2C(C#N)=C(N)Oc3cc(OC)ccc32)c1 (stereo not drawn) | 0.026 µM | 81.1 µM | 0.0263 µM | > 49.6 µM | 0.0416 µM | 4.96 µM | 0.048 µM | > 100 µM | 0.0762 µM | > 82.3 µM | 0.0822 µM | 25.2 µM | 0.0835 µM | > 100 µM | 0.0455 µM | 1.69 µM | < 0.0105 µM | 0.0556 µM | 0.0198 µM | 0.0709 µM
3 | CC12CCC(O)CC1CCC1C2CCC2(C)C(C3=CC(=O)OC3)CCC12 (stereo not drawn) | 7.76 µM | 42.5 µM | 6.9 µM | 21.2 µM | > 100 µM | > 100 µM | 16.9 µM | > 100 µM | 5.17 µM | > 41.8 µM | 5.02 µM | 29.5 µM | 0.3 µM | > 100 µM | > 100 µM | > 100 µM | 0.686 µM | 4.44 µM | 1.5 µM | 10.4 µM
4 | Cc1ccc(N(C(=O)CC(=O)N2N=C(c3ccccc3)C(N=Nc3ccc([N+](=O)[O-])cc3)C2=O)C(=O)c2ccc(Cl)cc2)cc1 (stereo not drawn) | – | 10.9 µM | – | 39.1 µM | – | > 53 µM | – | 38.3 µM | – | 35.4 µM | – | 56.5 µM | – | 15.7 µM | – | 84.8 µM | – | 9.76 µM | – | 36.9 µM
5 | O=C1C(=O)c2c(nc3ncccn23)-c2ccccc21 | 0.497 µM | 0.967 µM | 0.378 µM | 0.793 µM | 0.838 µM | 2.29 µM | 0.306 µM | 1.27 µM | 0.339 µM | 1.13 µM | 0.271 µM | 1 µM | 0.15 µM | 0.339 µM | 0.167 µM | 0.304 µM | 0.232 µM | 0.753 µM | 0.484 µM | 1.28 µM
6 | CC(C)c1ccc(O)c(=O)cc1 | – | > 86.2 µM | 75.4 µM | > 100 µM | 2.81 µM | > 100 µM | 3.54 µM | > 100 µM | 7.43 µM | > 62.1 µM | 3.12 µM | > 100 µM | 3.54 µM | 40.7 µM and 72.8 µM | 11.1 µM | 35.2 µM and 41.4 µM | 3.4 µM | 24.5 µM and 24.4 µM | – | > 100 µM
7 | CCc1nc(N)nc(N)c1-c1ccc(Cl)c(N=NN(C)C)c1 | – | > 100 µM | – | > 100 µM | – | > 91.4 µM | – | > 100 µM | – | > 100 µM | – | > 100 µM | – | > 100 µM | – | 50.2 µM | – | 99.6 µM | – | > 100 µM
8 | Oc1ccc(SCc2ccc(NCc3ccccc3)cc2)cc1 | – | 78.8 µM | – | 67.2 µM | – | 48.3 µM | – | > 100 µM | – | > 100 µM | – | > 100 µM | – | 73.9 µM | – | 47.3 µM | – | 98.2 µM | – | 88 µM
9 | Clc1ccc(-c2cn(-c3ccccc3)c(-c3ccccc3)n2)c(Cl)c1 | 2.11 µM | 11.9 µM | 0.864 µM | 2.2 µM | 1.79 µM | > 50 µM | 3.18 µM | > 31.5 µM | 1.78 µM | > 11 µM | 11.7 µM | > 50 µM | > 14 µM | > 50 µM | 48.5 µM | > 50 µM | > 24.2 µM | > 50 µM | 12.6 µM | > 45.1 µM
10 | CCN1CCCCC(=N\O)/C(=N/O)CCCC1 | – | > 100 µM | – | > 100 µM | – | > 100 µM | – | > 100 µM | – | > 100 µM | – | > 100 µM | – | > 100 µM | – | > 100 µM | – | > 100 µM | – | > 100 µM
11 | C=C1C(=O)O[C@H]2[C@H]1CC/C(COC(=O)C(=O)c1cn(C)c3ccc(OC)cc13)=C\CC[C@@]1(C)O[C@@H]21 | 2.02 µM | 3.95 µM | 6.69 µM | 11.8 µM | 2.23 µM | 5.4 µM | 6.76 µM | 20.4 µM | 5.71 µM | 12.5 µM | 1.27 µM | 3.17 µM | 1.57 µM | 2.62 µM | 4.03 µM | 7.56 µM | 5.02 µM | 9.16 µM | 6.77 µM | 10.1 µM
12 | COc1cccc2c1C(=O)c1c(O)c3c(c(O)c1C2=O)C[C@@](O)(/C(C)=N\O)C[C@@H]3OC1CC(N)C(O)C(C)O1 (stereo partly drawn) | – | 4.76 µM | – | 2.54 µM | – | 13.2 µM | – | 11.8 µM | – | 5.77 µM | – | 7.31 µM | – | 6.06 µM | – | 2.29 µM | – | 1.73 µM | – | 3.31 µM
